Assay results as given in patent US10711011B2, “Substituted oxazolidines as anti-bacterial agents” (BUGWORKS RESEARCH, INC., priority 2016, dated 2020).
In brackets after ≈: the same amount, converted by molar mass. Blank lines part the entries; values can stand above or below the compound they belong to.

Assays:
[1] = system: K. pneumoniae ATCC 13883; test: Minimum Inhibitory Concentration (MIC) in LB media; type: cell-based, Klebsiella pneumoniae; settings: for MIC: Klebsiella pneumoniae, ATCC13883, LB Media; for Minimum Inhibitory Concentration K. pneumoniae ATCC 13883: LB Media
Text: (§1) The compounds of Formula I are of interest due to their potent antibacterial effects. The ability of the invention compounds disclosed herein to achieve an antibacterial effect may be evaluated with regard to their ability to inhibit the growth of bacterial species like Escherichia coli ATCC 25922, Staphylococcus aureus ATCC 29213, Klebsiella pneumoniae ATCC 13883, Acinetobacter baumannii ATCC 19606, Pseudomonas aurigenosa ATCC 27853, Enterococcus faecalis ATCC 29212 and Enterococcus faecalis ATCC 29212 using an assay based on the following Minimum Inhibitory Concentration (MIC) protocol:
(§2) The test bacteria are grown in Luria Bertani Broth (HIMEDIA M1245), 25 grams of the powder is dissolved in 1000 ml distilled water and sterilized by autoclaving at 15 lbs pressure (121° C.) for 20 minutes. The medium sterility is checked by incubating at 37° C. for a period of 48 h.
(§3) Bacterial cultures that are stored as glycerol stocks at −80° C. are sub cultured on LB agar plates to obtain isolated colonies. A single colony of each strain is cultured in LB broth. The cultures are incubated at 37° C., 200 rpm till they reach an optical density (OD at 600 nm) of 0.8 to 1. […] Test compounds are dissolved in dimethyl sulfoxide (DMSO) to a stock concentration of 4 mg/ml. A twofold dilution series of this DMSO stock is prepared in a 96 well V bottom microtitre plate from rows A to H. A 3 μL volume of these dilutions are transferred to a 96-well flat bottom microtitre assay plate. Controls to monitor the effects of DMSO and media sterility are included. Each well is inoculated with 150 μL of the above diluted culture. The plates are incubated at 37° C. overnight in a humidified incubator. The following morning, the plates are read using a Spectrophotometer at 600 nm wavelength. […] The antibacterial activity (MIC) determined against representative Gram positive (S. aureus, E. faecalis) and Gram negative (E. coli, P. aurigenosa, K. pneumoniae and A. baumannii) pathogen were reported Table 1.

[2] = system: S. aureus ATCC 29213; test: Minimum Inhibitory Concentration (MIC) in LB media; type: cell-based, Staphylococcus aureus; settings: for MIC: Staphylococcus aureus, ATCC29213, LB Media; for Minimum Inhibitory Concentration S. aureus ATCC 29213: LB Media
Text: as §1, §2, §3

[3] = system: A. baumannii ATCC 19606; test: Minimum Inhibitory Concentration (MIC) in LB media; type: cell-based, Acinetobacter baumannii; settings: for MIC: Acinetobacter baumannii, ATCC19606, LB Media; for Minimum Inhibitory Concentration A. baumannii ATCC 19606: LB Media
Text: as §1, §2, §3

[4] = target: E. coli DNA gyrase (Escherichia coli, UniProt P0AES4+P0AES6); test: biochemical; settings: supercoiling assay
[5] = system: E. faecalis ATCC 29212; test: Minimum Inhibitory Concentration (MIC) in LB media; type: cell-based, Enterococcus faecalis; settings: for MIC: Enterococcus faecalis, ATCC29212
Text: as §1, §2, §3

[6] = system: P. aurigenosa ATCC 27853; test: Minimum Inhibitory Concentration (MIC) in LB media; type: cell-based, Pseudomonas aurigenosa; settings: for MIC: Pseudomonas, ATCC27853, LB Media; for Minimum Inhibitory Concentration P. aurigenosa ATCC 27853: LB Media
Text: as §1, §2, §3

[7] = system: E. coli ATCC 25922; test: Minimum Inhibitory Concentration (MIC) in LB media; type: cell-based, Escherichia coli; settings: for MIC: Escherichia coli, ATCC25922, LB Media; for Minimum Inhibitory Concentration E. coli ATCC 25922: LB Media
Text: as §1, §2, §3

[8] = target: E. coli topoisomerase IV (Escherichia coli, UniProt P0AFI2+P20083); test: biochemical; settings: decatenation assay; read-out: E. coli Topo IV IC50
Chain of E. coli topoisomerase IV (P0AFI2 whole entry): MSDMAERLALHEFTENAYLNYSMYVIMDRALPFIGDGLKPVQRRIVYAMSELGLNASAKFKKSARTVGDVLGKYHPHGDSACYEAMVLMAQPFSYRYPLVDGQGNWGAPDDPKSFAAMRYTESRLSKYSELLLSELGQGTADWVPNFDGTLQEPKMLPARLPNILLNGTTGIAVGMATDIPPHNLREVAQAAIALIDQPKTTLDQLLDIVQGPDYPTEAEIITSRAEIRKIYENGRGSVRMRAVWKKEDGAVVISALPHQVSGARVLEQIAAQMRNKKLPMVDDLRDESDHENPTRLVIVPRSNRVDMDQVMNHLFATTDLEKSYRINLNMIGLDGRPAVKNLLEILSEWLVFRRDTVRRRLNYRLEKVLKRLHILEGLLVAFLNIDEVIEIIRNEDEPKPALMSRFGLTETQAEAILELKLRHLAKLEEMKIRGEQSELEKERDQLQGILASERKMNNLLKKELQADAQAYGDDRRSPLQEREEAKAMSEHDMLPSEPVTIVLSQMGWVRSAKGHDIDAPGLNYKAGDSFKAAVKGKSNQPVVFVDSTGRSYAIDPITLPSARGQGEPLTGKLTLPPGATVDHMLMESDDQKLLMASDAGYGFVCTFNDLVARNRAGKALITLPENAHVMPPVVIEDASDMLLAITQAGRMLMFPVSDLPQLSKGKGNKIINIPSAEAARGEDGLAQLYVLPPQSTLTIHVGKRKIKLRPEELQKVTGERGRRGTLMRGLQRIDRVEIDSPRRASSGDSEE
Chain of E. coli topoisomerase IV (P20083 whole entry): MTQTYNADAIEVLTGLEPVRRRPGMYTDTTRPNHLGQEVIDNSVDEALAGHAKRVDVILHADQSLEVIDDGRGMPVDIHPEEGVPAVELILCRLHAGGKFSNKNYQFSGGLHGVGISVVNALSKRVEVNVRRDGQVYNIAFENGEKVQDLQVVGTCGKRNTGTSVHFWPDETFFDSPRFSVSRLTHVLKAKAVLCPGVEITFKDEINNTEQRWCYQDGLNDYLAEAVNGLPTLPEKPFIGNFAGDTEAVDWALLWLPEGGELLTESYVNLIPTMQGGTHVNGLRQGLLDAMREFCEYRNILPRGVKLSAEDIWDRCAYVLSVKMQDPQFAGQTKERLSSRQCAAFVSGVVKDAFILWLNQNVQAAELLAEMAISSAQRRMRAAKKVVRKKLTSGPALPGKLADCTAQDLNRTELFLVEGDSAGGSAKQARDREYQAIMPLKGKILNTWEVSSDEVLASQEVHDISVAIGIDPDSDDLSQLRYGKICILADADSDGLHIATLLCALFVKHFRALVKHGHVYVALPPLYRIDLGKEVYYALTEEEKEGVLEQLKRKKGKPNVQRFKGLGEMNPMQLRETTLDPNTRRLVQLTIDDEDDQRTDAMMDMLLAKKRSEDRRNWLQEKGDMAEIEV

[9] = system: A. baumannii (Aba) clinical strains; test: MIC50 and MIC90 studies using clinical strains (CLSI guidelines); type: cell-based; settings: for MIC ATCC19606: Aba reference strain ATCC19606, unit inferred; for Minimum (MIC) / MIC50 / MIC90: Aba, 169 strains; for Minimum (MIC): unit not given, in µg/mL; for MIC50 / MIC90: Acinetobacter baumannii
[10] = system: E. coli clinical strains; test: as above; type: cell-based; settings: for MIC ATCC25922: E. coli reference strain ATCC25922, no unit in this row (MIC50/MIC90 rows: μg/ml); for Minimum (MIC) / MIC50 / MIC90: E. coli, 201 strains; for Minimum (MIC): unit inferred; for MIC50 / MIC90: Escherichia coli
[11] = system: P. aurigenosa (Pae) clinical strains; test: as above; type: cell-based; settings: for MIC ATCC27853: Pae reference strain ATCC27853, unit inferred; for MIC50 / MIC90 / Minimum (MIC): Pae, 215 strains; for Minimum (MIC): unit not given, in µg/mL
[12] = system: K. pneumoniae (Kpn) clinical strains; test: as above; type: cell-based; settings: for MIC50 / MIC90: Klebsiella pneumoniae; for MIC50 / MIC90 / Minimum (MIC): Kpn, 211 strains; for MIC ATCC13883: Kpn reference strain ATCC13883; for MIC ATCC13883 / Minimum (MIC): unit inferred

Compound: CN1C(=O)Cc2ccc(F)c(CNCCCC3CN(c4ccc5c(n4)NC(=O)CO5)C(=O)O3)c21 (racemic) [Example 6, 6-(5-(3-(((6-fluoro-1-methyl-2-oxoindolin-7-yl)methyl)amino)propyl)-2-oxooxazolidin-3-yl)-2H-pyrido[3,2-b][1,4]oxazin-3(4H)-one]
MIC [1]: 0.5 µg/mL (≈ 1.07 µM)
MIC [2]: 0.13 µg/mL (≈ 0.277 µM)
MIC [3]: 0.25 µg/mL (≈ 0.533 µM)
IC50 [4]: 56 nM
MIC [5]: 0.5 µg/mL (≈ 1.07 µM)
MIC [6]: 1 µg/mL (≈ 2.13 µM)
MIC [7]: 0.25 µg/mL (≈ 0.533 µM)
IC50 [8]: 459 nM

Compound: CN1C(=O)Cc2ccc(F)c(CNCCCC3CN(c4ccc5c(n4)NC(=O)CO5)C(=O)O3)c21 (single isomer, unassigned) [Example 10, 6-(5-(3-(((6-fluoro-1-methyl-2-oxoindolin-7-yl)methyl)amino)propyl)-2-oxooxazolidin-3-yl)-2H-pyrido[3,2-b][1,4]oxazin-3(4H)-one]
Minimum Inhibitory Concentration K. pneumoniae ATCC 13883 [1]: 0.25 µg/mL
Minimum Inhibitory Concentration S. aureus ATCC 29213 [2]: 0.06 µg/mL
Minimum Inhibitory Concentration A. baumannii ATCC 19606 [3]: 0.06 µg/mL
IC50 [4]: 106 nM
Minimum Inhibitory Concentration E. faecalis ATCC 29212 [5]: 0.5 µg/mL
Minimum Inhibitory Concentration P. aurigenosa ATCC 27853 [6]: 1 µg/mL
Minimum Inhibitory Concentration E. coli ATCC 25922 [7]: 0.125 µg/mL
IC50 [8]: 398 nM

Compound: CN1C(=O)Cc2ccc(F)c(CCNCCC3CN(c4ccc5c(n4)NC(=O)CO5)C(=O)O3)c21 (single isomer, unassigned) [Example 14, 6-(5-(2-((2-(6-fluoro-1-methyl-2-oxoindolin-7-yl)ethyl)amino)ethyl)-2-oxooxazolidin-3-yl)-2H-pyrido[3,2-b][1,4]oxazin-3(4H)-one]
Minimum Inhibitory Concentration K. pneumoniae ATCC 13883 [1]: 0.125 µg/mL
Minimum Inhibitory Concentration S. aureus ATCC 29213 [2]: 0.03 µg/mL
Minimum Inhibitory Concentration A. baumannii ATCC 19606 [3]: 0.03 µg/mL
IC50 [4]: 100 nM
Minimum Inhibitory Concentration E. faecalis ATCC 29212 [5]: 0.25 µg/mL
Minimum Inhibitory Concentration P. aurigenosa ATCC 27853 [6]: 0.5 µg/mL
MIC ATCC19606 [9]: 0.06 µg/mL (≈ 0.128 µM)
Minimum (MIC) [9]: 0.015
MIC50 [9]: 0.25 µg/mL (≈ 0.533 µM)
MIC90 [9]: 0.5 µg/mL (≈ 1.07 µM)
Minimum Inhibitory Concentration E. coli ATCC 25922 [7]: 0.03 µg/mL
MIC ATCC25922 [10]: 0.06 µg/mL (≈ 0.128 µM)
Minimum (MIC) [10]: 0.03 µg/mL
MIC50 [10]: 0.25 µg/mL (≈ 0.533 µM)
MIC90 [10]: 0.5 µg/mL (≈ 1.07 µM)
MIC ATCC27853 [11]: 0.5 µg/mL (≈ 1.07 µM)
MIC50 [11]: 0.5 µg/mL (≈ 1.07 µM)
MIC90 [11]: 1 µg/mL (≈ 2.13 µM)
Minimum (MIC) [11]: 0.03125
MIC50 [12]: 1 µg/mL (≈ 2.13 µM)
MIC90 [12]: 4 µg/mL (≈ 8.52 µM)
MIC ATCC13883 [12]: 0.25 µg/mL (≈ 0.533 µM)
Minimum (MIC) [12]: 0.06 µg/mL
IC50 [8]: 36 nM

Compound: CN1C(=O)Cc2ccc(F)c(CNCCC3CN(c4ccc5c(n4)NC(=O)CO5)C(=O)O3)c21 (stereo not drawn) [Example 2, 6-(5-(2-(((6-Fluoro-1-methyl-2-oxoindolin-7-yl)methyl)amino)ethyl)-2-oxooxazolidin-3-yl)-2H-pyrido[3,2-b][1,4]oxazin-3(4H)-on]
MIC [1]: 2.5 µg/mL (≈ 5.49 µM)
MIC [2]: 0.6 µg/mL (≈ 1.32 µM)
MIC [3]: 0.3 µg/mL (≈ 0.659 µM)
IC50 [4]: 360 nM
MIC [5]: 1.25 µg/mL (≈ 2.74 µM)
MIC [6]: 10 µg/mL (≈ 22 µM)
MIC [7]: 1.25 µg/mL (≈ 2.74 µM)

Compound: CN1C(=O)C(C)(C)c2ccc(F)c(CNCCC3CN(c4ccc5c(n4)NC(=O)CO5)C(=O)O3)c21 (stereo not drawn) [Example 4, 6-(5-(2-(((6-fluoro-1,3,3-trimethyl-2-oxoindolin-7-yl)methyl)amino)ethyl)-2-oxooxazolidin-3-yl)-2H-pyrido[3,2-b][1,4]oxazin-3(4H)-one]
MIC [1]: > 80 µg/mL
MIC [2]: > 80 µg/mL
MIC [3]: > 80 µg/mL
IC50 [4]: 14000 nM
MIC [5]: > 80 µg/mL
MIC [6]: > 80 µg/mL
MIC [7]: > 80 µg/mL

Compound: CCN1C(=O)Cc2ccc(F)c(CNCCCC3CN(c4ccc5c(n4)NC(=O)CO5)C(=O)O3)c21 (stereo not drawn) [Example 8, 6-(5-(3-(((1-Ethyl-6-fluoro-2-oxoindolin-7-yl)methyl)amino)propyl)-2-oxooxazolidin-3-yl)-2H-pyrido[3,2-b][1,4]oxazin-3(4H)-one]
MIC [1]: 0.3 µg/mL (≈ 0.62 µM)
MIC [2]: 0.07 µg/mL (≈ 0.145 µM)
MIC [3]: 0.15 µg/mL (≈ 0.31 µM)
IC50 [4]: 54 nM
MIC [5]: 0.15 µg/mL (≈ 0.31 µM)
MIC [6]: 2.5 µg/mL (≈ 5.17 µM)
MIC [7]: 0.15 µg/mL (≈ 0.31 µM)
IC50 [8]: 362 nM

Compound: CN1C(=O)Cc2ccc(F)c(CNCCCC3CN(c4ccc5c(c4)NC(=O)CO5)C(=O)O3)c21 (stereo not drawn) [Example 12, 6-(5-(3-(((6-fluoro-1-methyl-2-oxoindolin-7-yl)methyl)amino)propyl)-2-oxooxazolidin-3-yl)-2H-benzo[b][1,4]oxazin-3(4H)-one]
MIC [1]: 0.5 µg/mL (≈ 1.07 µM)
MIC [2]: 0.25 µg/mL (≈ 0.534 µM)
MIC [3]: 0.13 µg/mL (≈ 0.277 µM)
IC50 [4]: 89 nM
MIC [5]: 0.5 µg/mL (≈ 1.07 µM)
MIC [6]: 2 µg/mL (≈ 4.27 µM)
MIC [7]: 0.25 µg/mL (≈ 0.534 µM)
IC50 [8]: 600 nM

Compound: CN1C(=O)Cc2ccc(F)c(C(O)CNCCC3CN(c4ccc5c(n4)NC(=O)CO5)C(=O)O3)c21 (stereo not drawn) [Example 15, 6-(5-(2-((2-(6-fluoro-1-methyl-2-oxoindolin-7-yl)-2-hydroxyethyl)amino)ethyl)-2-oxooxazolidin-3-yl)-2H-pyrido[3,2-b][1,4]oxazin-3(4H)-one]
MIC [1]: 2 µg/mL (≈ 4.12 µM)
MIC [2]: 1 µg/mL (≈ 2.06 µM)
MIC [3]: 4 µg/mL (≈ 8.24 µM)
IC50 [4]: 135 nM
MIC [5]: 2 µg/mL (≈ 4.12 µM)
MIC [6]: 2 µg/mL (≈ 4.12 µM)
MIC [7]: 1 µg/mL (≈ 2.06 µM)

MIC ATCC19606 [9]: 0.5 µg/mL (≈ 1.3 µM)
Minimum (MIC) [9]: 0.03125
MIC50 [9]: 8 µg/mL (≈ 20.9 µM)
MIC90 [9]: 32 µg/mL (≈ 83.4 µM)
MIC ATCC25922 [10]: 0.06 µg/mL (≈ 0.156 µM)
Minimum (MIC) [10]: 0.03 µg/mL
MIC50 [10]: 0.06 µg/mL (≈ 0.156 µM)
MIC90 [10]: 4 µg/mL (≈ 10.4 µM)
MIC ATCC27853 [11]: 0.5 µg/mL (≈ 1.3 µM)
MIC50 [11]: 2 µg/mL (≈ 5.22 µM)
MIC90 [11]: 8 µg/mL (≈ 20.9 µM)
Minimum (MIC) [11]: 0.03
MIC50 [12]: 1 µg/mL (≈ 2.61 µM)
MIC90 [12]: 16 µg/mL (≈ 41.7 µM)
MIC ATCC13883 [12]: 0.06 µg/mL (≈ 0.156 µM)
Minimum (MIC) [12]: 0.03 µg/mL
Compound: C[C@@H](O)[C@H]1C(=O)N2C(C(=O)O)=C(S[C@@H]3CN[C@H](C(=O)N(C)C)C3)[C@H](C)[C@H]12 [Meropenem, reference compound]
